Measured values published in patent publication US9708308B2, “Factor IXa inhibitors” (Merck Sharp & Dohme Corp., priority 2012, dated 2017).

biological target: Factor IXa (Homo sapiens, UniProt P00740); experiment: Determination of inhibitory activity against Factor IXa (cleavage of fluorescent peptide substrate); type: biochemical; conditions: cleavage of fluorescent peptide CH3SO2-D-CHG-Gly-Arg-AFC, release of AFC; read-out: FIXa IC50
Source text: • (R)—N-(3-aminobenzo[d]isoxazol-6-yl)-2-hydroxy-2-((R)-4-(1-(6-methoxypyridazin-4-yl)-1H-pyrazol-3-yl)-6,6-dimethyl-3-oxomorpholin-2-yl)acetamide. Determination of Inhibitory Activity Against Factor IXa
Formation of a clot to stem bleeding at a site of blood vessel injury involves the coordinated activity of a group of plasma proteins that initiate and propagate fibrin formation and subsequently protect fibrin from premature degradation. Factor IX is a key component of the plasma system that forms a fibrin clot at a site of vascular injury. The activity of Factor IXa is measured by monitoring the cleavage of the fluorescent peptide, CH3SO2-D-CHG-Gly-Arg-AFC.AcOH (“CHG” is cyclohexyl-glycine and “AFC” is trifluoro aminomethyl coumarin). Factor IXa cleaves the amide bond between Arg and AFC, thereby releasing the AFC fluorophore. The free AFC can be detected with a fluorescence detector at an excitation wavelength of 405 nm and emission wavelength of 510 nm.

Chain of Factor IXa (P00740 227-461 limits assumed): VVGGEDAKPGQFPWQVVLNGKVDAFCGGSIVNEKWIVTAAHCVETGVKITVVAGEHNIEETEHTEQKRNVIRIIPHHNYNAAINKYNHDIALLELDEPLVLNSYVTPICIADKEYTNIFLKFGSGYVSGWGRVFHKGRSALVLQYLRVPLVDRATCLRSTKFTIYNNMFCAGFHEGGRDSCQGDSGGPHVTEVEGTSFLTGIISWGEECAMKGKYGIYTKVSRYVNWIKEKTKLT
Chain of Factor IXa (P00740 47-191 partner limits assumed): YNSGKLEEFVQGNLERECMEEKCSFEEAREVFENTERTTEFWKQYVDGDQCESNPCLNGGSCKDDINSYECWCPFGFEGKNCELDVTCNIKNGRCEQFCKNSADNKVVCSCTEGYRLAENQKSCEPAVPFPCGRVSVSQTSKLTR

Compound	IC50
COc1cc(-n2cc(F)c(N3CCO[C@H]([C@@](C)(O)C(=O)Nc4ccc5c(N)noc5c4)C3=O)n2)cnn1 [Example 49, (R)—N-(3-aminobenzo[d]isoxazol-6-yl)-2-((R)-4-(4-fluoro-1-(6-methoxypyridazin-4-yl)-1H-pyrazol-3-yl)-3-oxomorpholin-2-yl)-2-hydroxypropanamide]	6.48 nM
C[C@](O)(C(=O)Nc1ccc2c(N)noc2c1)[C@H]1OCCN(c2nn(-c3cnnc(C(F)(F)F)c3)cc2F)C1=O [Example 50, (R)—N-(3-aminobenzo[d]isoxazol-6-yl)-2-((R)-4-(4-fluoro-1-(6-(trifluoromethyl)pyridazin-4-yl)-1H-pyrazol-3-yl)-3-oxomorpholin-2-yl)-2-Hydroxypropanamide]	1.89 nM
C[C@](O)(C(=O)Nc1ccc2c(N)noc2c1)[C@H]1OCCN(c2nn(-c3ccnc(C(F)(F)F)n3)cc2F)C1=O [Example 57, (R)—N-(3-aminobenzo[d]isoxazol-6-yl)-2-((R)-4-(4-fluoro-1-(2-(trifluoromethyl)pyrimidin-4-yl)-1H-pyrazol-3-yl)-3-oxomorpholin-2-yl)-2-hydroxypropanamide]	63.7 nM
Cc1cc(N2CCO[C@H]([C@@](C)(O)C(=O)Nc3ccc4c(N)noc4c3)C2=O)nn1-c1ccnc(C(F)(F)F)n1 [Example 59, (R)—N-(3-aminobenzo[d]isoxazol-6-yl)-2-hydroxy-2-((R)-4-(5-methyl-1-(2-(trifluoromethyl)pyrimidin-4-yl)-1H-pyrazol-3-yl)-3-oxomorpholin-2-yl)propanamide]	72.8 nM
C[C@](O)(C(=O)Nc1ccc2c(N)noc2c1)[C@H]1OCCN(c2cc3n(n2)CCC3)C1=O [Example 71, (R)—N-(3-aminobenzo[d]isoxazol-6-yl)-2-((R)-4-(5,6-dihydro-4H-pyrrolo[1,2-b]pyrazol-2-yl)-3-oxomorpholin-2-yl)-2-hydroxypropanamide]	368 nM
C[C@]1([C@@H](O)C(=O)Nc2ccc3c(N)noc3c2)OCCN(c2cccc(C(F)(F)F)n2)C1=O [Example 72, (R)—N-(3-Aminobenzo[d]isoxazol-6-yl)-2-hydroxy-2-((R)-2-methyl-3-oxo-4-(6-(trifluoromethyl)pyridin-2-yl)morpholin-2-yl)acetamide]	12.9 nM
C[C@]1([C@@H](O)C(=O)Nc2ccc3c(N)noc3c2)OCCN(c2ccn(-c3ccnc(C#N)c3)n2)C1=O [Example 73, (R)—N-(3-Aminobenzo[d]isoxazol-6-yl)-2-((R)-4-(1-(2-cyanopyridin-4-yl)-1H-pyrazol-3-yl)-2-methyl-3-oxomorpholin-2-yl)-2-hydroxyacetamide]	66.1 nM
CC[C@]1([C@@H](O)C(=O)Nc2ccc3c(N)noc3c2)OCCN(c2cccc(C(F)(F)F)n2)C1=O [Example 74, (R)—N-(3-Aminobenzo[d]isoxazol-6-yl)-2-((R)-2-ethyl-3-oxo-4-(6-(trifluoromethyl)pyridin-2-yl)morpholin-2-yl)-2-hydroxyacetamide]	408 nM
C[C@]1([C@@H](O)C(=O)Nc2ccc3c(N)noc3c2)OCCN(c2ccn(-c3ccc(=O)n(C(F)F)c3)n2)C1=O [Example 76, (R)—N-(3-Aminobenzo[d]isoxazol-6-yl)-2-((R)-4-(1-(1-(difluoromethyl)-6-oxo-1,6-dihydropyridin-3-yl)-1H-pyrazol-3-yl)-2-methyl-3-oxomorpholin-2-yl)-2-hydroxyacetamide]	11.1 nM
Cc1cc(N2CCO[C@](C)([C@@H](O)C(=O)Nc3ccc4c(N)noc4c3)C2=O)nn1-c1ccc(=O)n(C(F)F)c1 [Example 77, (R)—N-(3-Aminobenzo[d]isoxazol-6-yl)-2-((R)-4-(1-(1-(difluoromethyl)-6-oxo-1,6-dihydropyridin-3-yl)-5-methyl-1H-pyrazol-3-yl)-2-methyl-3-oxomorpholin-2-yl)-2-hydroxyacetamide]	26.5 nM

The next lines start with the values.

IC50	Compound
170 nM	Cc1nccc(-n2ccc(N3CCO[C@H]([C@@](C)(O)C(=O)Nc4ccc5c(N)noc5c4)C3=O)n2)n1 [Example 51, (R)—N-(3-aminobenzo[d]isoxazol-6-yl)-2-hydroxy-2-((R)-4-(1-(2-methylpyrimidin-4-yl)-1H-pyrazol-3-yl)-3-oxomorpholin-2-yl)propanamide]
102 nM	CN(C)c1nccc(-n2ccc(N3CCO[C@H]([C@@](C)(O)C(=O)Nc4ccc5c(N)noc5c4)C3=O)n2)n1 [Example 52, (R)—N-(3-aminobenzo[d]isoxazol-6-yl)-2-((R)-4-(1-(2-(dimethylamino)pyrimidin-4-yl)-1H-pyrazol-3-yl)-3-oxomorpholin-2-yl)-2-Hydroxypropanamide]
76.7 nM	C[C@](O)(C(=O)Nc1ccc2c(N)noc2c1)[C@H]1OCCN(c2ccn(-c3ccnc(C(F)(F)F)n3)n2)C1=O [Example 53, (R)—N-(3-aminobenzo[d]isoxazol-6-yl)-2-hydroxy-2-((R)-3-oxo-4-(1-(2-(trifluoromethyl)pyrimidin-4-yl)-1H-pyrazol-3-yl)morpholin-2-yl)propanamide]
145 nM	C[C@](O)(C(=O)Nc1ccc2c(N)noc2c1)[C@H]1OCCN(c2ccn(-c3ccnc(C#N)n3)n2)C1=O [Example 54, (R)—N-(3-aminobenzo[d]isoxazol-6-yl)-2-((R)-4-(1-(2-cyanopyrimidin-4-yl)-1H-pyrazol-3-yl)-3-oxomorpholin-2-yl)-2-hydroxypropanamide]
24.8 nM	COc1nccc(-n2ccc(N3CCO[C@H]([C@@](C)(O)C(=O)Nc4ccc5c(N)noc5c4)C3=O)n2)n1 [Example 55, (R)—N-(3-aminobenzo[d]isoxazol-6-yl)-2-hydroxy-2-((R)-4-(1-(2-methoxypyrimidin-4-yl)-1H-pyrazol-3-yl)-3-oxomorpholin-2-yl)propanamide]
84.5 nM	COc1cc(-n2ccc(N3CCO[C@H]([C@@](C)(O)C(=O)Nc4ccc5c(N)noc5c4)C3=O)n2)ncn1 [Example 56, (R)—N-(3-aminobenzo[d]isoxazol-6-yl)-2-hydroxy-2-((R)-4-(1-(6-methoxypyrimidin-4-yl)-1H-pyrazol-3-yl)-3-oxomorpholin-2-yl)propanamide]
32 nM	COc1nccc(-n2cc(F)c(N3CCO[C@H]([C@@](C)(O)C(=O)Nc4ccc5c(N)noc5c4)C3=O)n2)n1 [Example 58, (R)—N-(3-aminobenzo[d]isoxazol-6-yl)-2-((R)-4-(4-fluoro-1-(2-methoxypyrimidin-4-yl)-1H-pyrazol-3-yl)-3-oxomorpholin-2-yl)-2-hydroxypropanamide]
93 nM	C[C@](O)(C(=O)Nc1ccc2c(N)noc2c1)[C@H]1OCCN(c2ccc(-c3ccnc(C#N)c3)o2)C1=O [Example 61, (R)—N-(3-aminobenzo[d]isoxazol-6-yl)-2-((R)-4-(5-(2-cyanopyridin-4-yl)furan-2-yl)-3-oxomorpholin-2-yl)-2-hydroxypropanamide]
43.5 nM	C[C@](O)(C(=O)Nc1ccc2c(N)noc2c1)[C@H]1OCCN(c2ccc(-c3ccnc(C(F)(F)F)c3)o2)C1=O [Example 62, (R)—N-(3-aminobenzo[d]isoxazol-6-yl)-2-hydroxy-2-((R)-3-oxo-4-(5-(2-(trifluoromethyl)pyridin-4-yl)furan-2-yl)morpholin-2-yl)propanamide]
131 nM	COc1cc(-c2ccc(N3CCO[C@H]([C@@](C)(O)C(=O)Nc4ccc5c(N)noc5c4)C3=O)o2)ccn1 [Example 63, (R)—N-(3-aminobenzo[d]isoxazol-6-yl)-2-hydroxy-2-((R)-4-(5-(2-methoxypyridin-4-yl)furan-2-yl)-3-oxomorpholin-2-yl)propanamide]
124 nM	COc1nccc(-c2ccc(N3CCO[C@H]([C@@](C)(O)C(=O)Nc4ccc5c(N)noc5c4)C3=O)o2)n1 [Example 64, (R)—N-(3-aminobenzo[d]isoxazol-6-yl)-2-hydroxy-2-((R)-4-(5-(2-methoxypyrimidin-4-yl)furan-2-yl)-3-oxomorpholin-2-yl)propanamide]
468 nM	CC(C)(O)c1cccc(N2CCO[C@H]([C@@](C)(O)C(=O)Nc3ccc4c(N)noc4c3)C2=O)n1 [Example 65, (R)—N-(3-aminobenzo[d]isoxazol-6-yl)-2-hydroxy-2-((R)-4-(6-(2-hydroxypropan-2-yl)pyridin-2-yl)-3-oxomorpholin-2-yl)propanamide]
66.9 nM	C[C@](O)(C(=O)Nc1ccc2c(N)noc2c1)[C@H]1OCCN(c2cccc(-c3ccnnc3)n2)C1=O [Example 67, (R)—N-(3-aminobenzo[d]isoxazol-6-yl)-2-hydroxy-2-((R)-3-oxo-4-(6-(pyridazin-4-yl)pyridin-2-yl)morpholin-2-yl)propanamide]
574 nM	C[C@](O)(C(=O)Nc1ccc2c(N)noc2c1)[C@H]1OCCN(c2ccc3cc(C(F)(F)F)ccc3n2)C1=O [Example 68, (R)—N-(3-aminobenzo[d]isoxazol-6-yl)-2-hydroxy-2-((R)-3-oxo-4-(6-(trifluoromethyl)quinolin-2-yl)morpholin-2-yl)propanamide]
384 nM	C[C@](O)(C(=O)Nc1ccc2c(N)noc2c1)[C@H]1OCCN(c2ccc3ccncc3n2)C1=O [Example 69, (R)-2-((R)-4-(1,7-naphthyridin-2-yl)-3-oxomorpholin-2-yl)-N-(3-aminobenzo[d]isoxazol-6-yl)-2-hydroxypropanamide]
195 nM	Cc1nn(C)c2nc(N3CCO[C@H]([C@@](C)(O)C(=O)Nc4ccc5c(N)noc5c4)C3=O)ccc12 [Example 70, (R)—N-(3-aminobenzo[d]isoxazol-6-yl)-2-((R)-4-(1,3-dimethyl-1H-pyrazolo[3,4-b]pyridin-6-yl)-3-oxomorpholin-2-yl)-2-hydroxypropanamide]
